Measurements: US12133855B2, “Lipid-like nanocomplexes and uses thereof” (Trustees of Tufts College, priority 2018, dated 2024)

Assays:
HeLa cells [1] = assay: Internalization of calcein loaded nanoparticles; format: cell-based; details: 8 h of exposure
Procedure: The internalization kinetics and efficiencies of OCholB LNPs were then studied using NR loaded LNPs and HeLa cells. […] Next, all of the NR delivery efficiencies of eight OCholB LNPs were determined after 8 h of exposure. […] Representative fluorescent images of NR/LNPs (NR/75-OCholB, NR/76-OCholB and NR/77-OCholB) treated HeLa cells are shown in FIG. 12D, from which it is easily observed that NR was delivered into the cells and mainly distributed in cytoplasm, by OCholB LNPs. Next, the internalization of negatively charged hydrophilic fluorescent dye, calcein, was studied. […] Next, the use of OCholB LNPs for the intracellular delivery of macromolecular cargo was explored, using fluorescent recombinant (−30)GFP-Cre protein and HeLa-DsRed cells as the model system. […] Delivery efficiency was tested at a range of (−30)GFP-Cre protein concentrations (25, 50 and 100 nM), with a consistent lipid/protein ratio (i.e., delivery with the final lipid concentration of 1.7, 3.3, and 6.6 μg mL^−1 respectively). 33.2%, 43.8% and 74% of GFP positive (GFP^+) cells were recorded for (−30)GFP-Cre/Lpf2k treated cells with the concentration of (−30)GFP-Cre 25 nM, 50 nM and 100 nM, respectively. […]

Cy5-RNA = assay: RNA binding test of lipidoid nanoparticles; format: physicochemical
Procedure: Lipidoids were fabricated into nanoparticles for all delivery applications. Briefly, lipidoids were mixed with sodium acetate buffer (25 mM, pH 5.2), sonicated for 30 min in an ultrasonic bath, followed by another 30 min of vigorous vortexing. The as-prepared blank LNPs were stored at 4° C. For Cy5-RNA/LNP, mRNA/LNP and protein/LNP complexation, blank lipidoid nanoparticles were mixed with RNA molecules or (−30)GFP-Cre protein in PBS buffer (pH 7.4) following our previously reported procedures and incubated at room temperature for another 30 min before use. Typical procedures for Nile red encapsulation are as follows: 5 μL of Nile red stock solution in acetone was added into an empty vial, which was then placed in a vacuum oven to completely remove the organic solvent. Then, a predetermined amount of blank LNP stock solution (1.0 mg/mL) was added into the vial. The mixture was sonicated for 40 min in an ultrasonic bath and stirred overnight at room temperature. The final concentration of Nile red was adjusted to 6.6×10-7 mol L-1 and 6×10-7 mol L-1 for thiol triggered release study and cell incubation, respectively, by diluting with PBS as necessary. Typical procedures for CPT and DiO/DiI FRET pair encapsulation are as follows: 100 μL of DiO/DiI stock solution in MeOH was charged into an empty vial and placed in a vacuum oven to remove the organic solvent. Lipidoids (2.0 mg) in 200 μL of methanol were then added into the vial and stirred to produce a homogeneous solution. Then, 600 μL of DI water was added dropwise in 10 min with continuous stirring. The resulting mixture was dialyzed against DI water for 24 h (Thermo Scientific Slide-A-Lyzer Dialysis Cassette, MWCO=3500 Da), and fresh water was replaced every 4 h. Typical procedures for encapsulation of calcein and doxonorubicin hydrochloride are as follows: precalculated amounts of calcein or Dox stock solutions in DI water was diluted into 800 μL with sodium acetate buffer, and used as the selective solvents to trigger the self-assembly process of lipidoids in methanol (5 mg/mL), respectively. […]

HeLa cells [2] = assay: Cytotoxicity of anticancer drug loaded nanoparticles (MTT); details: Dox series; 8 h of exposure, MTT after 48 h of incubation
Procedure: After 24 h of incubation at 37° C., 5% CO2, Dox, CPT or Oxa loaded nanoparticles were added to the cells and incubated for 8 h followed by media change. The cells were then incubated for another 40 h before cell viability analysis.
Cell viabilities of HeLa and HeLa-DsRed were measured using the standard MTT assay. In a 96-well plate, after incubating HeLa or HeLa-DsRed cells with blank or cargo-loaded nanoparticles, the MTT reagent (5 mg/mL, in 30 μL PBS buffer) was added and the cells were incubated for another 4 h at 37° C. The cell culture media was then carefully removed and 200 μL of DMSO was added to each well. The DMSO solution was then transferred into a clean 96-well plate and the absorbance at 570 nm was recorded by a microplate reader. All experiments were performed in quadruplicate.
Dose-dependent cytotoxicity was then examined.

Ai14 mice = assay: In vivo genome editing, intramuscular injection, tdTomato expression; design: species or system mouse; details: single IM dose, day 10
Procedure: Similar to the in vitro transfection study, lipidoid nanoparticles were prepared for mRNA or protein loading and in vivo delivery. Ai14 mice were housed in a temperature and humidity controlled facility with a 12 h light/dark cycle. Three mice in each group were injected (intravenously or intramuscularly) with Cre mRNA-loaded or (−30)GFP-Cre protein-loaded LNPs formulations. Organs including heart, liver, spleen, lung and kidney from all groups were collected at day 10 (intramuscular injection) or 14 (intravenous injection) after injection. The tissues were fixed overnight in 4% paraformaldehyde (PFA) and dehydrated in 30% sucrose before being froze in OCT and sectioned into 10-15 μm slices. The slices were then collected and stained with DAPI for fluorescence imaging (BZ-X Analyzer fluorescence microscopy).
Cre-loxP system and transgenic Ai14 mouse model were used in the in vivo genome editing study. […] When the Cre recombinase mediated gene reorganization occurs, the STOP cassette could be removed, resulting in the expression of fluorescent tdTomato reporter protein.
Local delivery through intramuscular injection (IM injection; rear leg) using (−30)GFP-Cre protein and Cre mRNA loaded 76-OCholB LNPs (FIG. 17B). Ai14 mice (n=3) received single dose of (−30)GFP-Cre/LNPs (50 μg of protein) or mRMA/LNPs (10 μg of mRNA) injection at day 1 and were sacrificed at day 10. […]

[3] = 10/1 weight ratio, DTT (10 mM, 24 h) treated nanoparticles

Structure (SMILES)	mean fluorescent intensity vs free calcein-treated cells (HeLa cells [1]) [folds]	RNA molecules complexed with LNPs (Cy5-RNA; 10/1 weight ratio lipidoid/Cy5-RNA) [%]	RNA binding efficacy (Cy5-RNA; [3]) [%]	unbound Cy5-RNA (Cy5-RNA; [3]) [%]	cell viability / dose-dependent cytotoxicity (HeLa cells [2]) [%]	tdTomato fluorescent signals in skeletal muscle (Ai14 mice; (−30)GFP-Cre protein loaded, 50 μg protein)	tdTomato fluorescent signals in skeletal muscle (Ai14 mice; Cre mRNA loaded, 10 μg mRNA)
CCN(CC)CCN(CCC(=O)OCCSSCCNC(=O)OC1CCC2(C)C(=CCC3C2CCC2(C)C(C(C)CCCC(C)C)CCC32)C1)CCC(=O)OCCSSCCNC(=O)OC1CCC2(C)C(=CCC3C2CCC2(C)C(C(C)CCCC(C)C)CCC32)C1 (stereo not shown) [Lipidoid 75-OCholB]	~9.4	82.9	15.5	84.5	> 80	–	–
CC(C)CCCC(C)C1CCC2C3CC=C4CC(OC(=O)NCCSSCCOC(=O)CCN(CCC(=O)OCCSSCCNC(=O)OC5CCC6(C)C(=CCC7C6CCC6(C)C(C(C)CCCC(C)C)CCC76)C5)CCN5CCCC5)CCC4(C)C3CCC12C (stereo not shown) [Lipidoid 76-OCholB]	–	–	–	–	–	strong tdTomato fluorescent signals	strong tdTomato fluorescent signals
